Tested on: p53
Test: Western blot quantitation of p53 released into embryo culture media
Format: cell-based, mouse
Settings: embryos cultured in modHTF in the absence of Paf, compared with 0.1 μM Paf supplement; FIG. 3
Experimental: Embryos were collected and washed 3 times in cold PBS and transferred in a maximum volume of 1.5 μl PBS. Embryo culture media aliquots had embryos and all cells removed and then subjected to freeze drying. The lyophilized proteins were redissolved in 1.5 μl of water. Embryo or reconstituted culture media was mixed with 1.5 μl of 2X extraction buffer (2X PBS, 2% Triton X-100, 24 mM deoxycholic acid, 0.2% sodium dodecyl sulfate, 20 mM NaF, 20 mM Na4P2O7, 2 mM PMSF, 3.08 μM Aprotinin, 42 μM Leupeptin and 2.91 μM Pepstatin A-all from Sigma). The embryos were lysed by three cycles of freezing in liquid nitrogen and thawing (with vortexing). […]
Proteins were blotted into PVDF membranes (Hybond-P, Amersham Pharmacia) in a semi-dry blotting apparatus overnight using transfer buffer (12 mM Tris PH 7.0, 96 mM Glycine and 20% methanol). […] Membranes were probed with 1:500 diluted anti P53 antibody overnight at 4° C. in 2.5% skim milk, and detected with 1:500 diluted horse radish peroxidase (Jackson ImmunoResearch Laboratories, West Grove, Pa., USA) conjugated mouse antibody. […]
p53 was detected by Western blot as described above and densitometry was performed using Scion Image software (Scion Corporation, Frederick, Md., USA).

1-o-octadecyl/hexadecyl-2-acetyl-sn-glycero-3-phosphocholine [Paf]
extra-embryonic concentration of p53: higher
